From ChEMBL document CHEMBL1201862, “PubChem BioAssay data set” (2004) come the findings set out here.

Molecules are shown by their SMILES.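 Dose response: 5 concentrations. Exposure: 48 h. Format: 96-well plates. Endpoint: linear interpolation; highest concentration if not reached. GI50 marks 50% less growth.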 Activity calls are given as the source filed them. Rule as the data show it: active = GI50 up to about 1.1 µM and inactive = higher.

Some test systems named below: UO-31; TK-10; SF-268; EKVX; M14; HCC 2998; NCI-H460; COLO 205; SK-MEL-2; SK-MEL-5; KM12; SN12C; K562; MOLT-4; A549; SF-295; HT-29.
Holding throughout (assay): inhibition of tumour cell growth, NCI panel, 48 h

Turning to `O=C(O)C1CCc2nnc(-c3ccccc3)n21` (stereo not drawn), the GI50 in the experiment with UO-31, in the experiment with TK-10, in the experiment on SF-268, in the experiment on EKVX, in the experiment on M14 and with HCC 2998 was > 100 µM (inactive) throughout. Also, the GI50 in the experiment on NCI-H460, in the experiment with COLO 205, in the experiment with SK-MEL-2, in the experiment with SK-MEL-5, in the experiment with KM12 and in the experiment on SN12C was > 100 µM (inactive) in each case. Further, the GI50 in the experiment with K562, in the experiment on MOLT-4 and in the experiment with A549 was > 100 µM (inactive) throughout.

With `Cc1cccc(NC(=O)/C(=N\NC(C)(C)C)C2NC(=S)NC2=O)c1C` (stereo not drawn), the GI50 in the experiment on UO-31 was > 100 µM (inactive); in the experiment on TK-10 it was > 100 µM (inactive); with EKVX it was 59.6 µM (inactive); in the experiment on M14 it was > 100 µM (inactive); in the experiment with HCC 2998, > 100 µM (inactive); in the experiment on NCI-H460 it was > 100 µM (inactive). In addition, the GI50 in the experiment with COLO 205, with SK-MEL-2, with SK-MEL-5, in the experiment on KM12, with K562 and with MOLT-4 was > 100 µM (inactive) each time. Moreover, the GI50 in the experiment on SF-295 and in the experiment with A549 was > 100 µM (inactive) throughout.

For `C=C(/C=C/C=C(\CO)CCC=C(C)C)[C@H]1CCC2([C@H](CCCO)/C(=C(/C)C=O)CC[C@]2(C)O)[C@H]1O` (stereo partly drawn), the GI50 was 82 µM (inactive) in the experiment with TK-10; 83.8 µM (inactive) in the experiment with EKVX; > 100 µM (inactive) in the experiment on M14; > 100 µM (inactive) in the experiment on HCC 2998; 56.8 µM (inactive) in the experiment with NCI-H460; > 100 µM (inactive) in the experiment on HT-29. In addition, the GI50 is 26.3 µM (inactive) with COLO 205; > 100 µM (inactive) in the experiment with SK-MEL-2; > 100 µM (inactive) with SK-MEL-5; > 100 µM (inactive) in the experiment on KM12; 51.4 µM (inactive) with K562; > 100 µM (inactive) in the experiment on MOLT-4. Besides, the GI50 with SF-295 was 21.2 µM (inactive); in the experiment with A549 it was 59 µM (inactive).

Regarding `COc1ccccc1-n1c(NN)nc2ccc(Br)cc2c1=O`, the GI50 in the experiment on UO-31 is 35.1 µM (inactive); in the experiment on TK-10, 28.4 µM (inactive); in the experiment with SF-268, 32.4 µM (inactive); in the experiment with EKVX, 27.9 µM (inactive); in the experiment on M14, 40.6 µM (inactive); in the experiment with HCC 2998 it was 41.7 µM (inactive). Moreover, the GI50 in the experiment with NCI-H460 was 42.8 µM (inactive); with HT-29, 38.2 µM (inactive); in the experiment with COLO 205 it was 45.9 µM (inactive); with SK-MEL-2 it was 44.4 µM (inactive); in the experiment with SK-MEL-5 it was 19.3 µM (inactive); with KM12, 38.6 µM (inactive). Besides, the GI50 in the experiment with SN12C was 57.9 µM (inactive); with K562 it was 35.6 µM (inactive); in the experiment on MOLT-4 it was 26.2 µM (inactive); in the experiment with SF-295, 34.5 µM (inactive); in the experiment with A549, 45.4 µM (inactive).

As for `COC1OC(CO)C(O)C(OC(C)=O)C1NC(=O)N(CCCl)N=O` (stereo not drawn), the GI50 in the experiment with TK-10 is > 100 µM (inactive); in the experiment with SF-268, 21.3 µM (inactive); in the experiment on EKVX, > 100 µM (inactive); in the experiment on M14, > 100 µM (inactive); in the experiment on HCC 2998, > 100 µM (inactive); in the experiment with NCI-H460 it was 83.6 µM (inactive). Further, the GI50 is > 100 µM (inactive) in the experiment with HT-29; > 100 µM (inactive) with COLO 205; 0.0112 µM (active) in the experiment on SK-MEL-2; > 100 µM (inactive) in the experiment with SK-MEL-5; > 100 µM (inactive) with KM12; > 100 µM (inactive) in the experiment on SN12C. For the same compound, the GI50 is > 100 µM (inactive) in the experiment with K562, 95.9 µM (inactive) with MOLT-4, 42.7 µM (inactive) in the experiment on SF-295 and > 100 µM (inactive) in the experiment with A549.

Consider `N#CC1=C(Cl)NC(Cl)=C(C#N)C1c1c(Cl)cccc1Cl`, for which the GI50 is 49.4 µM (inactive) in the experiment with UO-31; 36.5 µM (inactive) in the experiment on TK-10; 30.4 µM (inactive) in the experiment with SF-268; 49.8 µM (inactive) with EKVX; 38.8 µM (inactive) in the experiment on M14; 24.1 µM (inactive) with HCC 2998. For the same compound, the GI50 was 18.4 µM (inactive) in the experiment with NCI-H460; 31.4 µM (inactive) in the experiment with HT-29; 17.5 µM (inactive) in the experiment with COLO 205; 58.3 µM (inactive) with SK-MEL-2; 21.5 µM (inactive) with SK-MEL-5; 21.8 µM (inactive) in the experiment with KM12. The GI50 with SN12C is 24.7 µM (inactive); with K562, 19 µM (inactive); in the experiment with MOLT-4, 32.5 µM (inactive); with SF-295, 41.7 µM (inactive); in the experiment on A549, 29.1 µM (inactive).

Regarding `O=S(=O)(Sc1ccc(Cl)cc1)c1ccc(Cl)cc1`, the GI50 is 11.2 µM (inactive) in the experiment on UO-31; 21.4 µM (inactive) in the experiment with TK-10; 7.16 µM (inactive) with SF-268; 15.6 µM (inactive) in the experiment with EKVX; 17.5 µM (inactive) in the experiment on M14; 17.6 µM (inactive) in the experiment on HCC 2998. For the same compound, the GI50 in the experiment with NCI-H460 is 17.1 µM (inactive); in the experiment with HT-29 it was 18.2 µM (inactive); in the experiment on COLO 205, 17.7 µM (inactive); with SK-MEL-2, 3.84 µM (inactive); with SK-MEL-5 it was 15.2 µM (inactive); in the experiment with KM12, 14.7 µM (inactive). In addition, the GI50 was 12.4 µM (inactive) with SN12C; 19.9 µM (inactive) in the experiment on K562; 9.79 µM (inactive) in the experiment with MOLT-4; 12.2 µM (inactive) in the experiment on SF-295; 12.2 µM (inactive) in the experiment with A549.

With `CC1=NN(C(=O)Cc2ccccc2)C(=O)/C1=C/c1c(O)ccc2ccccc12`, the GI50 with UO-31 was 22.2 µM (inactive); in the experiment with TK-10 it was 56.9 µM (inactive); in the experiment on SF-268 it was 55.5 µM (inactive); with EKVX it was > 100 µM (inactive); in the experiment on M14 it was 10 µM (inactive); in the experiment with HCC 2998, > 100 µM (inactive). The GI50 with NCI-H460 was 69 µM (inactive); in the experiment on HT-29, 57.3 µM (inactive); in the experiment with COLO 205 it was > 100 µM (inactive); in the experiment on SK-MEL-2, 1.7 µM (inactive); in the experiment on SK-MEL-5, 96.6 µM (inactive); in the experiment with KM12, 68.5 µM (inactive). For the same compound, the GI50 with SN12C is 34.1 µM (inactive); in the experiment on K562 it was 40.6 µM (inactive); in the experiment on MOLT-4 it was 22.8 µM (inactive); in the experiment with SF-295, 34.1 µM (inactive); with A549, > 100 µM (inactive).

In the case of `CC1(C)CC23C(=O)N(c4ccccc4)C(Nc4ccccc4)=NC2=CC(C#N)=C(C#N)C3O1` (stereo not drawn), the GI50 with UO-31 was 18.6 µM (inactive); with TK-10, > 100 µM (inactive); with SF-268, > 100 µM (inactive); with EKVX it was > 100 µM (inactive); in the experiment on M14 it was > 100 µM (inactive); with HCC 2998, 67.1 µM (inactive). The GI50 in the experiment with NCI-H460 is 43.8 µM (inactive); in the experiment on HT-29, 26.9 µM (inactive); with COLO 205 it was 39.9 µM (inactive); in the experiment with SK-MEL-2, 61.5 µM (inactive); in the experiment on SK-MEL-5, 28.1 µM (inactive); with KM12, 46.6 µM (inactive). The GI50 is 34.8 µM (inactive) with SN12C; 72.4 µM (inactive) with K562; 29.3 µM (inactive) in the experiment on MOLT-4; 46.7 µM (inactive) in the experiment with SF-295; 28.1 µM (inactive) in the experiment with A549.

As to `Cc1ccccc1NC(=O)C(=O)CC(=O)c1c(C)[n+]([O-])c2ccccc2[n+]1[O-]`, the GI50 with UO-31, in the experiment on SF-268, with EKVX, with M14, in the experiment on HCC 2998 and in the experiment on NCI-H460 was > 100 µM (inactive) in each case. Also, the GI50 was > 100 µM (inactive) in the experiment on HT-29; > 100 µM (inactive) in the experiment on COLO 205; > 100 µM (inactive) in the experiment with SK-MEL-2; 59.8 µM (inactive) in the experiment on KM12; > 100 µM (inactive) with SN12C; > 100 µM (inactive) with K562. The GI50 with SF-295 and in the experiment on A549 was > 100 µM (inactive) throughout.

Regarding `Nc1nc2c(-c3ccc([N+](=O)[O-])cc3)nnn2c2ccccc12`, the GI50 in the experiment on UO-31 is > 100 µM (inactive); with TK-10, 21 µM (inactive); in the experiment on SF-268, > 100 µM (inactive); with EKVX it was > 100 µM (inactive); in the experiment with M14, > 100 µM (inactive); in the experiment with HCC 2998, > 100 µM (inactive). Besides, the GI50 in the experiment with NCI-H460, with HT-29, with COLO 205, in the experiment on SK-MEL-2, in the experiment on KM12 and in the experiment on SN12C was > 100 µM (inactive) each time. For the same compound, the GI50 with K562 is > 100 µM (inactive); in the experiment on MOLT-4, > 100 µM (inactive); in the experiment on SF-295, 62.1 µM (inactive); in the experiment on A549, > 100 µM (inactive).

Take `CCN1CC2(C)CC[C@@H](OC)C34[C@@H]2[C@H](OC(C)=O)C2(OCO[C@@]25C[C@H](OC)C2C[C@]3(O)[C@@H]5[C@H]2O)[C@H]14`: the GI50 in the experiment on UO-31, with TK-10, in the experiment with SF-268, with EKVX, in the experiment on M14 and in the experiment with HCC 2998 was > 100 µM (inactive) throughout. In addition, the GI50 in the experiment with NCI-H460, in the experiment on HT-29, in the experiment on COLO 205, in the experiment with SK-MEL-2, in the experiment on KM12 and in the experiment with SN12C was > 100 µM (inactive) throughout. For the same compound, the GI50 in the experiment on SF-295 and with A549 was > 100 µM (inactive) in each case.
